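Exposure lasted 48 hours, with cells grown in 96-well plates and compounds tested at five concentrations. GI50 is the concentration that inhibits growth by half.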 Activity calls are given as the source filed them. No stated cut-off is given here; in the data, active = GI50 up to about 1.1 µM and inactive = higher.
What was measured:
Assay in all cases: growth of human tumour cells (NCI), 48 h
HCT-116 = test system: HCT-116
COLO 205 = test system: COLO 205
786-0 = test system: 786-0
MCF7 = test system: MCF7
HOP-62 = test system: HOP-62
OVCAR-5 = test system: OVCAR-5
T47D = test system: T47D
SF-539 = test system: SF-539
SW-620 = test system: SW-620
MOLT-4 = test system: MOLT-4
SNB-19 = test system: SNB-19
RPMI-8226 = test system: RPMI-8226
SNB-78 = test system: SNB-78
DU-145 = test system: DU-145
DMS-273 = test system: DMS-273
OVCAR-4 = test system: OVCAR-4
NCI-H522 = test system: NCI-H522
PC-3 = test system: PC-3
Malme-3M = test system: Malme-3M
XF498 = test system: XF498
MDA-N = test system: MDA-N
NCI/ADR-RES = test system: NCI/ADR-RES
IGROV-1 = test system: IGROV-1
OVCAR-3 = test system: OVCAR-3
UACC-257 = test system: UACC-257
HOP-18 = test system: HOP-18
SF-268 = test system: SF-268
HL-60 = test system: HL-60
NCI-H460 = test system: NCI-H460
NCI-H23 = test system: NCI-H23
UACC-62 = test system: UACC-62
TK-10 = test system: TK-10
Hs-578T = test system: Hs-578T
K562 = test system: K562
DLD-1 = test system: DLD-1
DMS-114 = test system: DMS-114
M14 = test system: M14
CAKI-1 = test system: CAKI-1
LXFL 529 = test system: LXFL 529
HT-29 = test system: HT-29
LOX IMVI = test system: LOX IMVI
SR = test system: SR
BT-549 = test system: BT-549
M19-MEL = test system: M19-MEL
KM12 = test system: KM12
SF-295 = test system: SF-295
A498 = test system: A498
SK-MEL-28 = test system: SK-MEL-28
U-251 = test system: U-251
ACHN = test system: ACHN
SNB-75 = test system: SNB-75
SK-OV-3 = test system: SK-OV-3
HOP-92 = test system: HOP-92
SK-MEL-2 = test system: SK-MEL-2
OVCAR-8 = test system: OVCAR-8
RXF 393 = test system: RXF 393
HCT-15 = test system: HCT-15
A549 = test system: A549
CCRF-CEM = test system: CCRF-CEM
EKVX = test system: EKVX
KM-20L2 = test system: KM-20L2
NCI-H226 = test system: NCI-H226
SK-MEL-5 = test system: SK-MEL-5
SN12C = test system: SN12C
MDA-MB-435 = test system: MDA-MB-435
HCC 2998 = test system: HCC 2998
UO-31 = test system: UO-31
RXF 631 = test system: RXF 631

`Clc1cccc(N2CCN(CCN3CCc4c([nH]c5ccccc45)C3c3cccnc3)CC2)c1` (configuration not stated) was tested, and the GI50 (HCT-116) was 31.8 µM (inactive), the GI50 (COLO 205) was > 33.7 µM (inactive) and the GI50 (786-0) was 29.8 µM (inactive). The GI50 (MCF7) was 19.2 µM (inactive), the GI50 (HOP-62) was > 45.6 µM (inactive) and the GI50 (OVCAR-5) was > 57.3 µM (inactive). The GI50 (T47D) was 9.38 µM (inactive), the GI50 (SF-539) was 33.5 µM (inactive) and the GI50 (SW-620) was > 64.6 µM (inactive). For the same compound, the GI50 (MOLT-4) was > 71.6 µM (inactive), the GI50 (SNB-19) was > 100 µM (inactive) and the GI50 (RPMI-8226) was 30.6 µM (inactive). For the same compound, the GI50 (SNB-78) was > 100 µM (inactive), the GI50 (DU-145) was > 31.6 µM (inactive) and the GI50 (DMS-273) was 37.9 µM (inactive). For the same compound, the GI50 (OVCAR-4) was 31.4 µM (inactive), the GI50 (NCI-H522) was 65.5 µM (inactive) and the GI50 (PC-3) was > 86.7 µM (inactive). For the same compound, the GI50 (Malme-3M) was > 66.8 µM (inactive), the GI50 (XF498) was 40.3 µM (inactive) and the GI50 (MDA-N) was > 100 µM (inactive). The GI50 (NCI/ADR-RES) was > 100 µM (inactive), the GI50 (IGROV-1) was 9.59 µM (inactive) and the GI50 (OVCAR-3) was 58.5 µM (inactive). For the same compound, the GI50 (UACC-257) was > 77.4 µM (inactive), the GI50 (HOP-18) was > 100 µM (inactive) and the GI50 (SF-268) was > 100 µM (inactive). The GI50 (HL-60) was 26.3 µM (inactive), the GI50 (NCI-H460) was 8.75 µM (inactive) and the GI50 (NCI-H23) was 78.5 µM (inactive). For the same compound, the GI50 (UACC-62) was > 70 µM (inactive), the GI50 (TK-10) was > 100 µM (inactive) and the GI50 (Hs-578T) was > 68.9 µM (inactive). For the same compound, the GI50 (K562) was 10.9 µM (inactive), the GI50 (DLD-1) was 39.4 µM (inactive) and the GI50 (DMS-114) was 73.5 µM (inactive). The GI50 (M14) was > 79.4 µM (inactive), the GI50 (CAKI-1) was > 100 µM (inactive) and the GI50 (LXFL 529) was 63.7 µM (inactive). The GI50 (HT-29) was 37 µM (inactive), the GI50 (LOX IMVI) was > 50.2 µM (inactive) and the GI50 (SR) was 25.7 µM (inactive). For the same compound, the GI50 (BT-549) was > 100 µM (inactive), the GI50 (M19-MEL) was > 100 µM (inactive) and the GI50 (KM12) was 8.05 µM (inactive). For the same compound, the GI50 (SF-295) was 69 µM (inactive), the GI50 (A498) was > 100 µM (inactive) and the GI50 (SK-MEL-28) was > 100 µM (inactive). The GI50 (U-251) was 64.4 µM (inactive), the GI50 (ACHN) was > 100 µM (inactive) and the GI50 (SNB-75) was 18.8 µM (inactive). For the same compound, the GI50 (SK-OV-3) was > 100 µM (inactive), the GI50 (HOP-92) was > 52.5 µM (inactive) and the GI50 (SK-MEL-2) was 61 µM (inactive). The GI50 (OVCAR-8) was > 61.9 µM (inactive), the GI50 (RXF 393) was > 100 µM (inactive) and the GI50 (HCT-15) was 8.81 µM. For the same compound, the GI50 (A549) was > 94.6 µM (inactive), the GI50 (CCRF-CEM) was > 40.4 µM (inactive) and the GI50 (EKVX) was 14.5 µM (inactive). For the same compound, the GI50 (KM-20L2) was 24 µM (inactive), the GI50 (NCI-H226) was > 37.3 µM (inactive) and the GI50 (SK-MEL-5) was 97.7 µM (inactive). For the same compound, the GI50 (SN12C) was 43.6 µM (inactive), the GI50 (MDA-MB-435) was > 100 µM (inactive) and the GI50 (HCC 2998) was 22.5 µM (inactive). The GI50 (UO-31) was > 100 µM (inactive).

With `Cc1ccccc1C(C#N)C(=O)C(=O)Nc1cccc(Cl)c1` (configuration not stated) the GI50 (HCT-116) was > 100 µM (inactive), the GI50 (COLO 205) was 58.3 µM (inactive) and the GI50 (786-0) was 37.8 µM (inactive). The GI50 (HOP-62) was > 100 µM (inactive), the GI50 (OVCAR-5) was > 100 µM (inactive) and the GI50 (SF-539) was > 100 µM (inactive). For the same compound, the GI50 (SW-620) was 15.7 µM (inactive), the GI50 (MOLT-4) was > 100 µM (inactive) and the GI50 (SNB-19) was > 100 µM (inactive). The GI50 (RPMI-8226) was 27.2 µM (inactive), the GI50 (SNB-78) was > 100 µM (inactive) and the GI50 (DMS-273) was > 100 µM (inactive). The GI50 (NCI-H522) was 58.5 µM (inactive), the GI50 (Malme-3M) was > 100 µM (inactive) and the GI50 (XF498) was 71.4 µM (inactive). For the same compound, the GI50 (IGROV-1) was > 100 µM (inactive), the GI50 (OVCAR-3) was > 100 µM (inactive) and the GI50 (UACC-257) was > 100 µM (inactive). For the same compound, the GI50 (SF-268) was > 100 µM (inactive), the GI50 (HL-60) was 91.4 µM (inactive) and the GI50 (NCI-H460) was 61.5 µM (inactive). For the same compound, the GI50 (NCI-H23) was > 100 µM (inactive), the GI50 (UACC-62) was > 100 µM (inactive) and the GI50 (RXF 631) was > 100 µM (inactive). For the same compound, the GI50 (TK-10) was > 100 µM (inactive), the GI50 (K562) was 32.2 µM (inactive) and the GI50 (DLD-1) was > 100 µM (inactive). The GI50 (DMS-114) was 54.6 µM (inactive), the GI50 (M14) was > 100 µM (inactive) and the GI50 (CAKI-1) was > 100 µM (inactive). For the same compound, the GI50 (HT-29) was > 100 µM (inactive), the GI50 (LOX IMVI) was 19.1 µM (inactive) and the GI50 (M19-MEL) was 26.4 µM (inactive). For the same compound, the GI50 (KM12) was > 100 µM (inactive), the GI50 (SF-295) was > 100 µM (inactive) and the GI50 (A498) was > 100 µM (inactive). For the same compound, the GI50 (SK-MEL-28) was > 100 µM (inactive), the GI50 (U-251) was > 100 µM (inactive) and the GI50 (ACHN) was > 100 µM (inactive). The GI50 (SNB-75) was > 100 µM (inactive), the GI50 (SK-OV-3) was > 100 µM (inactive) and the GI50 (HOP-92) was > 100 µM (inactive). The GI50 (SK-MEL-2) was > 100 µM (inactive), the GI50 (OVCAR-8) was > 100 µM (inactive) and the GI50 (RXF 393) was > 100 µM (inactive). The GI50 (HCT-15) was over 100 µM, the GI50 (A549) was > 100 µM (inactive) and the GI50 (CCRF-CEM) was 39.4 µM (inactive). The GI50 (EKVX) was > 100 µM (inactive), the GI50 (KM-20L2) was > 100 µM (inactive) and the GI50 (NCI-H226) was > 100 µM (inactive). For the same compound, the GI50 (SK-MEL-5) was > 100 µM (inactive), the GI50 (SN12C) was > 100 µM (inactive) and the GI50 (HCC 2998) was > 100 µM (inactive). The GI50 (UO-31) was > 100 µM (inactive).
